In patent US9040701B2, “Apaf-1 inhibitor compounds” (LABORATORIOS SALVAT, S.A., priority 2009, dated 2015):

Biological target: T1, Recombinant Apaf-1 produced in insect cells (rApaf-1) (Homo sapiens, UniProt O14727)
T1 construct: made in house; host or cells: insect cells (Apaf-1); E. coli (procaspase-9); cytochrome c purchased from Sigma
T1 sequence (O14727 1-1248): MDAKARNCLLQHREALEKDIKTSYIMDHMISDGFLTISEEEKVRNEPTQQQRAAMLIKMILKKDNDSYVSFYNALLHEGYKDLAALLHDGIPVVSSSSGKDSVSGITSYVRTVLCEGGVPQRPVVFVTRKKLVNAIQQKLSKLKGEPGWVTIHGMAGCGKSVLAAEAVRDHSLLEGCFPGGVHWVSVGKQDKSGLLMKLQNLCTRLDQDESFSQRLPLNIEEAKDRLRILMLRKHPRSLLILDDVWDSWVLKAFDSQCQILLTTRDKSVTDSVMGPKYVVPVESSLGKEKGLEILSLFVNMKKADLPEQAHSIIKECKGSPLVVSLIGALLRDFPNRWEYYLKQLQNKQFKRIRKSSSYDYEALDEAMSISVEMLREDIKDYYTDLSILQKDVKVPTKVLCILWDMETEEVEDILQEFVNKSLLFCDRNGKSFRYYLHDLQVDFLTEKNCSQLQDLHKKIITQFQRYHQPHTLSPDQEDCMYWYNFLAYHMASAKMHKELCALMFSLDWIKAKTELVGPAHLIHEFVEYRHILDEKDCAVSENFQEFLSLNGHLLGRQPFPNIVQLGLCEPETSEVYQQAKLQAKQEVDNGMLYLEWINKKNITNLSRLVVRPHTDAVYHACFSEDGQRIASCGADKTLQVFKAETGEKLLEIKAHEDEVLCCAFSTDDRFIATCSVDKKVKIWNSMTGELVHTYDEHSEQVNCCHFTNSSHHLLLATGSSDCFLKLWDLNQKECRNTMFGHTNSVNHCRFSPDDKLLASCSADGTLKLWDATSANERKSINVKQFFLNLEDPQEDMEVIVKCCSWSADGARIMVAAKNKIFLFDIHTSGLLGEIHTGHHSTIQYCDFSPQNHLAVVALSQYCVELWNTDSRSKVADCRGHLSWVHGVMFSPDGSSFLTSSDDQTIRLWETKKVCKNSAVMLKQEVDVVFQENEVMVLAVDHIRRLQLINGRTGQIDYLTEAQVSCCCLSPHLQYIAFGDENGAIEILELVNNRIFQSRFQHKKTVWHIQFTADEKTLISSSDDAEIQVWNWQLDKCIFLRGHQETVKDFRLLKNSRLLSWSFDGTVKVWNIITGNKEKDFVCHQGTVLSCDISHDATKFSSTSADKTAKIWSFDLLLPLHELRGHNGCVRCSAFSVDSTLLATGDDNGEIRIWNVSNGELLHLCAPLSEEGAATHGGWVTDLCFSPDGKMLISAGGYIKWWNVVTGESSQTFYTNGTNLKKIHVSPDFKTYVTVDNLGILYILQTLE
Assay: In vitro apoptosome formation inhibition assay
Assay type: biochemical
Conditions: compound at 10 μM; rApaf-1 40 nM, dATP/Mg 100 μM, horse cytochrome c 0.1 μM, rprocaspase-9 0.1 μM; caspase-9 substrate Ac-LEDH-afc, afc release at 37° C.
Experimental: Recombinant Apaf-1 produced in insect cells (rApaf-1) was incubated in the presence (at a concentration of 10 μM) or absence (as control) of the compounds to be evaluated in the assay buffer (20 mM Hepes-KOH pH 7.5, 10 mM KCl, 1.5 mM MgCl2, 1 mM EDTA, 1 mM EGTA, 1 mM DTT, 0.1 mM PMSF) for 15 minutes at 30° C. The final rApaf-1 concentration was 40 nM. dATP/Mg (Sigma) and purified horse cytochrome c (Sigma) were then added achieving final concentrations of 100 μM and 0.1 μM, respectively. It was incubated for 60 minutes at 30° C. and recombinant procaspase-9 produced in E. coli (rprocaspase-9, final concentration 0.1 μM) was then added and it was incubated for 10 minutes at 30° C. before adding the caspase-9 fluorogenic substrate Ac-LEDH-afc (final concentration 50 μM). The total assay volume was 200 μL. The caspase activity was continuously monitored by means of the afc release at 37° C. in a Wallac 1420 Workstation (λexc=390 nm, λem=510 nm).
The activity values of some compounds described in the examples are indicated in the following table expressed as the percentage of Apaf-1 inhibition.

Row | inhibition at 10 µM [%] | Compound
1 | 46 | NC(=O)CN(CCc1ccccn1)C(=O)CC1C(=O)N(CCc2ccc(Cl)cc2Cl)CC(=O)N1CCC(c1ccccc1)c1ccccc1 (stereo not shown) [I.1.16, N-(2-amino-2-oxoethyl)-2-(4-(2,4-dichlorophenethyl)-1-(3,3-diphenylpropyl)-3,6-dioxopiperazin-2-yl)-N-(2-(pyridin-2-yl)ethyl)acetamide]
2 | 29 | COC(=O)CN(CCc1ccc(Cl)cc1Cl)C(=O)CC1C(=O)N(CCc2ccc(Cl)cc2Cl)CC(=O)N1CCc1c[nH]c2ccccc12 (stereo not shown) [Ic.3.2, Methyl 2-(2-(1-(2-(1H-indol-3-yl)ethyl)-4-(2,4-dichlorophenethyl)-3,6-dioxopiperazin-2-yl)-N-(2,4-dichlorophenethyl)acetamido)acetate]
3 | 36 | CCC(C)N(CC(N)=O)C(=O)CC1C(=O)N(CCc2ccc(Cl)cc2Cl)CC(=O)N1CCC(c1ccccc1)c1ccccc1 (stereo not shown) [I.1.20, N-(2-amino-2-oxoethyl)-N-(sec-butyl)-2-(4-(2,4-dichlorophenethyl)-1-(3,3-diphenylpropyl)-3,6-dioxopiperazin-2-yl)acetamide]
4 | 80 | NCCCCC(NC(=O)CN(CCc1ccc(Cl)cc1Cl)C(=O)CC1C(=O)N(CCc2ccc(Cl)cc2Cl)CC(=O)N1CCC(c1ccccc1)c1ccccc1)C(N)=O (stereo not shown) [If.1.2, 6-amino-2-(2-(N-(2,4-dichlorophenethyl)-2-(4-(2,4-dichlorophenethyl)-1-(3,3-diphenylpropyl)-3,6-dioxopiperazin-2-yl)acetamido)acetamido)hexanamide]
5 | 29 | NC(=O)CN(CCc1ccc(Cl)cc1Cl)C(=O)CC1C(=O)N(CCc2ccc(Cl)cc2Cl)CC(=O)N1CCc1ccc(-c2ccccc2)cc1 (stereo not shown) [Ia.6.2, 2-(1-(2-([1,1′-biphenyl]-4-yl)ethyl)-4-(2,4-dichlorophenethyl)-3,6-dioxopiperazin-2-yl)-N-(2-amino-2-oxoethyl)-N-(2,4-dichlorophenethyl)acetamide]
6 | 40 | COc1ccc2[nH]cc(CCN3C(=O)CN(CCc4ccc(Cl)cc4Cl)C(=O)C3CC(=O)NCCc3ccc(Cl)cc3Cl)c2c1 (stereo not shown) [Id.5.2, N-(2,4-dichlorophenethyl)-2-(4-(2,4-dichlorophenethyl)-1-(2-(5-methoxy-1H-indol-3-yl)ethyl)-3,6-dioxopiperazin-2-yl)acetamide]
7 | 28 | O=C(O)CN(CCc1ccc(Cl)cc1Cl)C(=O)CC1C(=O)N(CCc2ccc(Cl)cc2Cl)CC(=O)N1Cc1ccc(F)cc1 (stereo not shown) [Ib.2.2, 2-(N-(2,4-dichlorophenethyl)-2-(4-(2,4-dichlorophenethyl)-1-(4-fluorobenzyl)-3,6-dioxopiperazin-2-yl)acetamido) acetic acid]
8 | 72 | O=C(O)CN(CCc1ccc(Cl)cc1Cl)C(=O)CC1C(=O)N(CCc2ccc(Cl)cc2Cl)CC(=O)N1CCC(c1ccccc1)c1ccccc1 (stereo not shown) [Ib.1.2, 2-(N-(2,4-dichlorophenethyl)-2-(4-(2,4-dichlorophenethyl)-1-(3,3-diphenylpropyl)-3,6-dioxopiperazin-2-yl)acetamido) acetic acid]
9 | 48 | O=C(O)CN(CCc1ccc(Cl)cc1Cl)C(=O)CC1C(=O)N(CCc2ccc(Cl)cc2Cl)CC(=O)N1CCc1c[nH]c2ccccc12 (stereo not shown) [Ib.3.2, 2-(2-(1-(2-(1H-indol-3-yl)ethyl)-4-(2,4-dichlorophenethyl)-3,6-dioxopiperazin-2-yl)-N-(2,4-dichlorophenethyl)acetamido) acetic acid]
10 | 23 | COC(=O)CN(CCc1ccc(Cl)cc1Cl)C(=O)CC1C(=O)N(CCc2ccc(Cl)cc2Cl)CC(=O)N1CCc1c[nH]c2ccc(OC)cc12 (stereo not shown) [Ic.5.2, Methyl 2-(N-(2,4-dichlorophenethyl)-2-(4-(2,4-dichlorophenethyl)-1-(2-(5-methoxy-1H-indol-3-yl)ethyl)-3,6-dioxopiperazin-2-yl)acetamido)acetate]
